Test in all cases: fluorogenic peptidase assay
Format in all cases: biochemical

One assay has as its target T1, bsClpYQ (Bacillus subtilis, UniProt P39070+P39778).
T1 sequence (P39070 2-181): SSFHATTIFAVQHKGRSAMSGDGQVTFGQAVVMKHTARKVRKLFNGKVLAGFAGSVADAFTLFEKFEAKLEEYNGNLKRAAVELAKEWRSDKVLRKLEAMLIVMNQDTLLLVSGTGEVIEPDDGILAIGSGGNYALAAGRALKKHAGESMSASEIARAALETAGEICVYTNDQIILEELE
T1 sequence (P39778 1-467): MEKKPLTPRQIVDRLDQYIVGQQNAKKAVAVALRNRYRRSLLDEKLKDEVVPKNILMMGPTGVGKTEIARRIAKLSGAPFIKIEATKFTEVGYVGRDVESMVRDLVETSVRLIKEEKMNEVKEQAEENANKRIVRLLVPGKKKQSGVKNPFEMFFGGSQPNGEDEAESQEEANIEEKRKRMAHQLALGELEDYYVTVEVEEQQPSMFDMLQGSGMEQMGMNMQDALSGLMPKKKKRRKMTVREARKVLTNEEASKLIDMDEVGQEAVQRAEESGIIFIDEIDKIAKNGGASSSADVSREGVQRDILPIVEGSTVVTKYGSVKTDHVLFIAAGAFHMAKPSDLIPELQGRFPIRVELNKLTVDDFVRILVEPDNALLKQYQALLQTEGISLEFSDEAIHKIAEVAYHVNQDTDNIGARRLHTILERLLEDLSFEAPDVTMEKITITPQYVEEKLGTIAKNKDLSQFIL
To be noted: substrate Cbz-GGL-AMC, ATP present; competitive.

The target in assay [1] is T2, ecClpP (Escherichia coli, UniProt P0A6G7).
T2 sequence (P0A6G7 15-207): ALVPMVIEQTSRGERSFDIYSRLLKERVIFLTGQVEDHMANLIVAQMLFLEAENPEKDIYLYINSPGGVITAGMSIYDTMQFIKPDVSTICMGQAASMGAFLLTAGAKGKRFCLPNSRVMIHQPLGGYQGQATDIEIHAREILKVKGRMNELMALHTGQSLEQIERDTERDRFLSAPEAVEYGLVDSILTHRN
For assay [2], the target named is T3, ecClpXP (Escherichia coli, UniProt P0A6G7+P0A6H1). As to conditions: substrate Suc-LY-AMC; competitive.
T3 sequence (P0A6G7 15-207): as above
T3 sequence (P0A6H1 2-424): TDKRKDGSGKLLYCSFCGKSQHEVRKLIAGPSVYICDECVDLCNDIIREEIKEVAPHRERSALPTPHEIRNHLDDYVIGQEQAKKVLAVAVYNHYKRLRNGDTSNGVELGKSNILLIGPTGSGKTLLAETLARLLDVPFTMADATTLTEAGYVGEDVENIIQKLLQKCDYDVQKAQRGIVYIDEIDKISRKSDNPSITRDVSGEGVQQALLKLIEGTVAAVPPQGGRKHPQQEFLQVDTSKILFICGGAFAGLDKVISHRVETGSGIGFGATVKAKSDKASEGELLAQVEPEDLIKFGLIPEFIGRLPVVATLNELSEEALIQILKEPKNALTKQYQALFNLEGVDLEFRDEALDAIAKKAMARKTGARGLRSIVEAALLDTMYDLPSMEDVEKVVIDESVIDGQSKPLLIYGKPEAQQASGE
For assay [3], the target named is T2, ecClpP. The source holds these as a separate data set.
Assay [4] addresses T3, ecClpXP. As to conditions: 0.1 mM Suc-LY-AMC; competitive.

As for `CCCCCCc1c(O)c(Cl)cc2c1OC1(C2=O)C(Cl)=C(Cl)C(=O)N1C` (racemic) [compound 1, 5-chloro-armeniaspirol A], the Ki was found to be 3.2 µM on bsClpYQ, 58.8 µM on ecClpP [1] and 36.7 µM at ecClpXP [2]. The IC50 worked out at 61 ± 1 µM against ecClpP [3] and 48.6 ± 1 µM on ecClpXP [4].

The record behind these values is article doi:10.1101/685669v2 (biorxiv, 2020).
